target: Escherichia coli ParC/ParE tetramer protein (Escherichia coli, UniProt P0AFI2+P20083); test: E. coli ParC/ParE ATPase inhibition assay (malachite green phosphate detection); type: biochemical; conditions: ATPase activity of ParE subunit of reconstituted ParC/ParE tetramer; 0.16 mM ATP; 24 hours at room temperature
Description: The compounds of Formula (I) are of interest due to their antibacterial effects. The ability of the invention compounds disclosed herein to achieve an antibacterial effect may be evaluated with regard to their ability to inhibit the ParC enzyme of Escherichia coli using an assay based on the following protocol.
The assay utilizes the ATPase activity of the ParE subunit of reconstituted Escherichia coli ParC/ParE tetramer protein. Inhibition of ATPase activity may be monitored by reduced production of inorganic phosphate, a product of the ATPase reaction. Inorganic phosphate may be quantified using the ammonium molybdate/malachite green-based detection system. For determination of IC50 values, assays may be performed 384-well microtiter plates. Each well preferably contains a dilution range of the compound dissolved in DMSO. In addition, each well preferably contains: 20 mM Tris pH 8.0, 50 mM ammonium acetate, 0.16 mM ATP, 0.005% Brij-35, 8.0 mM magnesium chloride, 0.5 mM EDTA, 2.5% v/v glycerol, 5 mM dithiothreitol, 0.005 mg/mL sheared salmon sperm DNA, 0.5 nM E. coli ParC protein, 0.5 nM E. coli ParE protein. Final volume of assays is preferably 30 μL. Reactions may be incubated 24 hours at room temperature and then quenched with the addition of 45 μL malachite green reagent (Lanzetta, P. A., L. J. Alvarez, P. S. Reinach, and O. A. Candia (1979) Anal. Biochem. 100: 95-97) via a bulk reagent dispenser. Plates may be incubated 3-5 minutes at room temperature, and then absorbance at 650 nm may be measured using a Spectramax 384 plate reader.
When tested in an assay based on the one described above, the inhibitory activity of the following Examples was measured at the indicated IC50.

Chain of Escherichia coli ParC/ParE tetramer protein (P20083 whole entry): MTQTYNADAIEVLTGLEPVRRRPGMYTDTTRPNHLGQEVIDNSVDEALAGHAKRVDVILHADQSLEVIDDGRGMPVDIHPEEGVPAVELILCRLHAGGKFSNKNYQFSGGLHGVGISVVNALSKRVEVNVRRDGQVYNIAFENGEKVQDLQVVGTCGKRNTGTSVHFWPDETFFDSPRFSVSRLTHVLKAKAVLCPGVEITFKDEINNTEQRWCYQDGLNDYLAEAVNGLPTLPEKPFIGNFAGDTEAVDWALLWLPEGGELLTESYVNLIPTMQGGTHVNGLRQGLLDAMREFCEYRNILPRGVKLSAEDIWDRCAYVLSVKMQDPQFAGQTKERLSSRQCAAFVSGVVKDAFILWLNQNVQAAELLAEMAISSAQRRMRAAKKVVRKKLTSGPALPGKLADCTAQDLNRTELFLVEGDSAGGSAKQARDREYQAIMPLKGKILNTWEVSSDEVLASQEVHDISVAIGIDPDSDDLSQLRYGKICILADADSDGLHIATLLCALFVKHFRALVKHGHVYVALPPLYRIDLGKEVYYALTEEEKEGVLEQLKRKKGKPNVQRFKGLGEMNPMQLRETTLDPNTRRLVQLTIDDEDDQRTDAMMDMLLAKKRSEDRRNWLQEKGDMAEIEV
Chain of Escherichia coli ParC/ParE tetramer protein (P0AFI2 whole entry): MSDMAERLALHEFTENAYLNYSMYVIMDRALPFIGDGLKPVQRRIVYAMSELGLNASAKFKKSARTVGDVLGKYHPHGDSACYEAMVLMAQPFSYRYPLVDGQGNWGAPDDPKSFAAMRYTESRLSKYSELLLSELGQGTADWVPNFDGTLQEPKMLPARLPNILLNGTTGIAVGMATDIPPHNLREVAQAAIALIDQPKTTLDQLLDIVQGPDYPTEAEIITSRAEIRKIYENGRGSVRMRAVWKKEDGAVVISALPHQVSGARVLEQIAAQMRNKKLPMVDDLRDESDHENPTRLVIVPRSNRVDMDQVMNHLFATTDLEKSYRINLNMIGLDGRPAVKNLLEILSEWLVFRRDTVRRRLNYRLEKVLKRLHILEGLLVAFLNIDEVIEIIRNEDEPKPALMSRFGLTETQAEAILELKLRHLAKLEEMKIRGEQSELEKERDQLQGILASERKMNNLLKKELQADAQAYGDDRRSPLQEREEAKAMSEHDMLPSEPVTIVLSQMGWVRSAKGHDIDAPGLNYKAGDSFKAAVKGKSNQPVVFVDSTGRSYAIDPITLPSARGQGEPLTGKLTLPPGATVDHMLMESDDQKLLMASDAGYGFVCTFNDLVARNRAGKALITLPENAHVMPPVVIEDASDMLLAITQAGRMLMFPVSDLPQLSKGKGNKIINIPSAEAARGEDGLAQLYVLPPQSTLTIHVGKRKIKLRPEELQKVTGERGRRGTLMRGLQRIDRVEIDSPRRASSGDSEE

In order of rising IC50:
1. N#Cc1ccc2ccc(=O)n(CC(N)[C@H]3CC[C@H](NCc4ccc5c(n4)NC(=O)CS5)CC3)c2c1 (single isomer, unassigned; enantiomer b) [Example 7(b), Trans-1-(2-amino-2-(4-((3-oxo-3,4-dihydro-2H-pyrido[3,2-b][1,4]thiazin-6-yl)methylamino)cyclohexyl)ethyl)-2-oxo-1,2-dihydroquinoline-7-carbonitrile, enantiomer B]  0.002 µM
2. COc1cnc2ccc(=O)n(CC(N)[C@H]3CC[C@H](NCc4ccc5c(n4)NC(=O)CO5)CC3)c2c1 (single isomer, unassigned; enantiomer a) [Example 1(a), Trans-6-((4-(1-amino-2-(7-methoxy-2-oxo-1,5-naphthyridin-1(2H)-yl)ethyl)cyclohexylamino)methyl)-2H-pyrido[3,2-b][1,4]oxazin-3(4H)-one, enantiomer A]  0.002 µM
3. COc1ccc2ncc(=O)n(CC(N)[C@H]3CC[C@H](NCc4ncc5c(n4)NC(=O)CO5)CC3)c2c1 (single isomer, unassigned; enantiomer b) [Example 3(b), Trans-2-((4-(1-amino-2-(7-methoxy-2-oxoquinoxalin-1(2H)-yl)ethyl)cyclohexylamino)methyl)-6H-pyrimido[5,4-b][1,4]oxazin-7(8H)-one, enantiomer B]  0.003 µM
4. N#Cc1ccc2ccc(=O)n(CC(N)[C@H]3CC[C@H](NCc4ccc5c(n4)NC(=O)CO5)CC3)c2c1 (single isomer, unassigned; enantiomer b) [Example 4(b), Trans-1-(2-amino-2-(4-((3-oxo-3,4-dihydro-2H-pyrido[3,2-b][1,4]oxazin-6-yl)methylamino)cyclohexyl)ethyl)-2-oxo-1,2-dihydroquinoline-7-carbonitrile, enantiomer B]  0.004 µM
5. COc1ccc2ncc(=O)n(CC(N)[C@H]3CC[C@H](NCc4ccc5c(n4)NC(=O)CO5)CC3)c2c1 (single isomer, unassigned; enantiomer b) [Example 2(b), Trans-6-((4-(1-amino-2-(7-methoxy-2-oxoquinoxalin-1(2H)-yl)ethyl)cyclohexylamino)methyl)-2H-pyrido[3,2-b][1,4]oxazin-3(4H)-one, enantiomer B]  0.004 µM
6. NC(Cn1c(=O)ccc2ncc(Sc3ccccc3)cc21)C1CCC(NCc2ccc3c(n2)NC(=O)CO3)CC1 (single isomer, unassigned; enantiomer a) [Example 9, Trans-6-((4-(1-amino-2-(2-oxo-7-(phenylthio)-1,5-naphthyridin-1(2H)-yl)ethyl)cyclohexylamino)methyl)-2H-pyrido[3,2-b][1,4]oxazin-3(4H)-one, enantiomer A]  0.006 µM
7. N#Cc1ccc2ccc(=O)n(CC(N)C3CCC(NCc4ccc5c(n4)NC(=O)CO5)CC3)c2c1 (racemic) [Example 4, Trans-1-(2-amino-2-(4-((3-oxo-3,4-dihydro-2H-pyrido[3,2-b][1,4]oxazin-6-yl)methylamino)cyclohexyl)ethyl)-2-oxo-1,2-dihydroquinoline-7-carbonitrile]  0.009 µM
8. Cc1cc(=O)n(CC(N)C2CCC(NCc3ccc4c(n3)NC(=O)CO4)CC2)c2cc(F)ccc12 (single isomer, unassigned; enantiomer a) [Example 10, Trans-6-((4-(1-amino-2-(7-fluoro-4-methyl-2-oxoquinolin-1(2H)-yl)ethyl)cyclohexylamino)methyl)-2H-pyrido[3,2-b][1,4]oxazin-3(4H)-one, enantiomer A]  0.009 µM
9. N#Cc1ccc2ccc(=O)n(CC(N)C3CCC(NCc4ccc5c(n4)NC(=O)CS5)CC3)c2c1 (racemic) [Example 7, Trans-1-(2-amino-2-(4-((3-oxo-3,4-dihydro-2H-pyrido[3,2-b][1,4]thiazin-6-yl)methylamino)cyclohexyl)ethyl)-2-oxo-1,2-dihydroquinoline-7-carbonitrile]  0.012 µM
10. NC(Cn1c(=O)cnc2ccc(F)cc21)C1CCC(NCc2ncc3c(n2)NC(=O)CO3)CC1 (single isomer, unassigned) [Example 6, Trans-2-((4-(1-amino-2-(7-fluoro-2-oxoquinoxalin-1(2H)-yl)ethyl)cyclohexylamino)methyl-6H-pyrimido[5,4-b][1,4]oxazin-7(8H)-one, (+) enantiomer]  0.015 µM
11. COc1ccc2ncc(=O)n(CC(N)[C@H]3CC[C@H](NCc4ncc5c(n4)NC(=O)CO5)CC3)c2c1 (single isomer, unassigned; enantiomer a) [Example 3(a), Trans-2-((4-(1-amino-2-(7-methoxy-2-oxoquinoxalin-1(2H)-yl)ethyl)cyclohexylamino)methyl)-6H-pyrimido[5,4-b][1,4]oxazin-7(8H)-one, enantiomer A]  0.016 µM
12. COc1ccc2ncc(=O)n(CC(N)[C@H]3CC[C@H](NCc4ccc5c(n4)NC(=O)CO5)CC3)c2c1 (single isomer, unassigned; enantiomer a) [Example 2(a), Trans-6-((4-(1-amino-2-(7-methoxy-2-oxoquinoxalin-1(2H)-yl)ethyl)cyclohexylamino)methyl)-2H-pyrido[3,2-b][1,4]oxazin-3(4H)-one, enantiomer A]  0.016 µM
13. COc1cnc2ccc(=O)n(CC(N)C3CCC(NCc4ncc5c(n4)NC(=O)CO5)CC3)c2c1 (racemic) [Example 8, Trans-2-((4-(1-amino-2-(7-methoxy-2-oxo-1,5-naphthyridin-1(2H)-yl)ethyl)cyclohexylamino)methyl)-6H-pyrimido[5,4-b][1,4]oxazin-7(8H)-one]  0.017 µM
14. COc1cnc2ccc(=O)n(CC(N)C3CCC(NCc4ccc5c(n4)NC(=O)CO5)CC3)c2c1 (racemic) [Example 1, Trans-6-((4-(1-amino-2-(7-methoxy-2-oxo-1,5-naphthyridin-1(2H)-yl)ethyl)cyclohexylamino)methyl)-2H-pyrido[3,2-b][1,4]oxazin-3(4H)-one]  0.02 µM
15. NC(Cn1c(=O)cnc2ccc(F)cc21)[C@H]1CC[C@H](NCc2ccc3c(n2)NC(=O)CO3)CC1 (single isomer, unassigned) [Example 5, Trans-6-((4-(1-amino-2-(7-fluoro-2-oxoquinoxalin-1(2H)-yl)ethyl)cyclohexylamino)methyl-2H-pyrido[3,2-b][1,4]oxazin-3(4H)-one, (+) enantiomer]  0.024 µM
16. N#Cc1ccc2ccc(=O)n(CC(N)[C@H]3CC[C@H](NCc4ccc5c(n4)NC(=O)CO5)CC3)c2c1 (single isomer, unassigned; enantiomer a) [Example 4(a), Trans-1-(2-amino-2-(4-((3-oxo-3,4-dihydro-2H-pyrido[3,2-b][1,4]oxazin-6-yl)methylamino)cyclohexyl)ethyl)-2-oxo-1,2-dihydroquinoline-7-carbonitrile, enantiomer A]  0.032 µM
17. COc1cnc2ccc(=O)n(CC(N)[C@H]3CC[C@H](NCc4ccc5c(n4)NC(=O)CO5)CC3)c2c1 (single isomer, unassigned; enantiomer b) [Example 1(b), Trans-6-((4-(1-amino-2-(7-methoxy-2-oxo-1,5-naphthyridin-1(2H)-yl)ethyl)cyclohexylamino)methyl)-2H-pyrido[3,2-b][1,4]oxazin-3(4H)-one, enantiomer B]  0.033 µM

Reference: patent publication US20110288084A1, “[4-( 1-AMINO-ETHYL) - CYCLOHEXYL ] - METHYL - AMINES AS ANTIBACTERIALS” (ASTRAZENECA AB, priority 2008, published 2011)
